Assay: In Vivo Exposure as Measured by Rat Plasma Concentration
Conditions: Fischer 344 male rats, sum of the concentrations at 0.5 and 1 hour or at 1 and 3 hour, LC/MS/MS
Description: To study the in vivo exposure of compounds of Formula II following oral dosing of compounds of Formula I in comparison to compounds of Formula II, studies measuring the plasma concentrations of the respective compound of Formula II in rats are performed. Mature Fischer 344 male rats (190-270 gram) are obtained from Harlan Sprague-Dawley, Cumberland, Ind., USA, and acclimated in the study housing for 3 days. […] Blood samples are collected through orbital sinus or cardiac puncture (last time point) at 0.5 and 1 hour or, alternatively, at 1 and 3 hours. Plasma samples are stored at −20° C. in the presence of phenylmethylsulfonyl fluoride, a protease inhibitor, prior to analysis. Plasma samples and internal standard compounds are pretreated by solid phase extraction (SAX support, methanol/water/dilute acetic acid).
As shown in Tables 1A and 1B below, the plasma concentrations (ng/ml) of the respective compound of Formula II for each test compound are determined by LC/MS/MS and are presented as a sum of the concentrations at the 0.5 and 1 hour or, alternatively, at the 1 and 3 hour sample time points.

Rat Exposure (ng/ml of (1R,4S,5S,6S)-4-(2′S-Aminopropionyl)amino-]-2,2-dioxo-2λ^6-thia-bicyclo[3.1.0.]hexane-4,6-dicarboxylic acid hydrochloride) (following 5 mg/kg p.o.) | Rat Exposure (ng/ml of (1R,2S,4R,5R,6R)-2-(2′S-Aminopropionyl)amino-4-fluorobicyclo[3.1.0]hexane-2,6-dicarboxylic acid hydrochloride) (following 10 mg/kg p.o.) | Structure (SMILES) | Rat Exposure (ng/ml of (1R,2S,4R,5R,6R)-2-(2′S-Aminopropionyl)amino-4-fluorobicyclo[3.1.0]hexane-2,6-dicarboxylic acid hydrochloride) (following 5 mg/kg p.o.)
1521 ng/ml (following 5 mg/kg p.o.) | – | N[C@@]1(C(=O)O)CS(=O)(=O)[C@H]2[C@H](C(=O)O)[C@H]21 [Non-prodrug form of Example 1, (1R,4S,5S,6S)-4-Amino-2,2-dioxo-2λ^6-thia-bicyclo[3.1.0]hexane-4,6-dicarboxylic acid] | –
– | – | C[C@H](N)C(=O)N[C@@]1(C(=O)O)C[C@@H](F)[C@H]2[C@H](C(=O)O)[C@H]21.Cl [Example 14, (1R,2S,4R,5R,6R)-2-(2′S-Amino-propionyl)amino-4-fluorobicyclo[3.1.0]hexane-2,6-dicarboxylic acid hydrochloride] | 5271 ng/ml (following 5 mg/kg p.o.)
– | 1342 ng/ml (following 10 mg/kg p.o.) | N[C@@]1(C(=O)O)C[C@@H](F)[C@H]2[C@H](C(=O)O)[C@H]21 [Non-prodrug form of Example 14, 1R,2S,4R,5R,6R-2-amino-4-fluorobicyclo[3.1.0]hexane-2,6-dicarboxylic acid] | 1162 ng/ml (following 5 mg/kg p.o.)
